{
  "source": "patent US8962527B2",
  "about": "“Process for preparation of herbicidal salts” (Nufarm Australia Limited, priority 2010, dated 2015)",
  "key": {"[1]": {"experiment": "Hygroscopicity of the finished product", "format": "physicochemical", "conditions": "dried solid product"}, "[2]": {"experiment": "pH of 3% solution of the finished product in H2O", "format": "physicochemical", "conditions": "3% solution in H2O", "description": "The reaction was monitored by addition of small amounts of reaction mixture to water. When the mixture provides a pH of 8 and remains at this pH the reaction was considered complete. The product was filtered and dried at temperature not greater than 60° C. The mother liquor is made up with fresh MTBE, ready for the next batch."}},
  "data": [
    {"compound": "CNC.Cc1cc(Cl)ccc1OCC(=O)O", "note": "[Example 1, MCPA/DMA Salt]", "values": [
      {"measurement": "hygroscopicity of product", "setting": "[1]", "result": "extremely hydroscopic"},
      {"measurement": "pH", "setting": "[2]", "result": "5.5-6.5"}
    ]},
    {"compound": "CNC.COc1c(Cl)ccc(Cl)c1C(=O)O", "note": "[Example 2, Dicamba/DMA Salt]", "values": [
      {"measurement": "hygroscopicity of product", "setting": "[1]", "result": "extremely hydroscopic"},
      {"measurement": "pH", "setting": "[2]", "result": "5.5-6.5"}
    ]},
    {"compound": "CNC.Cc1cc(Cl)ccc1OC(C)C(=O)O", "note": "(centres unmarked) [Example 3, MCPP/DMA Salt]", "values": [
      {"measurement": "hygroscopicity of product", "setting": "[1]", "result": "extremely hydroscopic"},
      {"measurement": "pH", "setting": "[2]", "result": "5.8-6.3"}
    ]},
    {"compound": "CC(Oc1ccc(Cl)cc1Cl)C(=O)O.CNC", "note": "(centres unmarked) [Example 4, 2,4-DP/DMA Salt]", "values": [
      {"measurement": "hygroscopicity of product", "setting": "[1]", "result": "not hydroscopic"},
      {"measurement": "pH", "setting": "[2]", "result": "5.8-6.5"}
    ]}
  ]
}
